Experimental data as given in patent publication US20220154247A1, “ULTRASENSITIVE METHOD FOR DETECTING CELL DEATH” (priority 2019, published 2022).
“Also recorded” adds a separate entry of the source.

Tests used:
MOLM14 cells = test: Annexin V/propidium iodide labeling, flow cytometry, percentage of apoptotic cells; type: cell-based; details: MOLM14 cells treated 16 h with 0-10 μM etoposide; no plateau with the PCR method
Experimental: The cells are washed with PBS then resuspended in 1× binding buffer at a concentration of 1×10^6 cells/ml. 10 μl of Annexin V Pacific Blue and 10 μl of propidium iodide (Biolegend kit) are added to 200 μl of this cell suspension, which is then incubated for 15 minutes in darkness and at ambient temperature. After centrifugation at 300 g for 5 min, the supernatant is gently aspirated and 500 μl of 1× binding buffer are added.
These cells are then used in flow cytometry for determining the effect of the treatment and the number of cells in apoptosis. These cells are sorted depending on their annexin V and propidium iodide statuses in order to then carry out a PCR.
MOLM14 cells are left untreated (NT) or treated for 16 h with increasing concentrations of etoposide (0-0.62-1.25-2.5-5 or 10 μM).
The cells are labeled using the Pacific Blue™ Annexin V kit (Biolegend) according to the supplier's recommendations and then analyzed by flow cytometry (MACSQuant VYB—Miltenyi Biotec). The percentage of positive apoptotic cells (annexin V) is determined.

MDA-MB-231 cells = test: DNA fragments in the cytoplasmic fraction detected by capillary electrophoresis (fragment analyzer); type: cell-based; details: MDA-MB-231 cells treated 24 h with 50 or 100 nM staurosporine, compared to untreated cells
Experimental: MDA-MB-231 cells were inoculated in 6 [MUT] at an amount of 3 million cells per 35 ml of DMEM high glucose medium (10% FCS, P/S). The next day, the MDA-MB-231 cells were treated with 50 nM and 100 nM staurosporine. The medium of the 2 untreated [MUT] was changed. After 24 h of treatment, the MDA-MB-231 cells were lysed with 2 ml of lysis buffer added to the [MUT] for 15 min at ambient temperature, then 2 ml were transferred into a tube and centrifuged at 2000 g for 5 min. The supernatant was then treated with RNaseA (20 μg/ml) and then with Proteinase K (used at 100 ug/ml), and placed at 70° C. for 15 min. The lysis buffer is a mixture of 50 mM 4-(2-hydroxyethyl)-1-piperazineethanesulfonic acid, 5 mM ethylenediaminetetraacetic acid, 150 mM sodium chloride, and 50 μg/ml digitonin. 1/10 volume of sodium acetate (NaAc) (3 M, pH 5.2) was then added. DNA was precipitated with 1 volume of isopropanol. The samples were left at ambient temperature for 15 min and then centrifuged at 20 000 g for 20 min at +4° C. The supernatant was aspirated and the pellet was washed with 75% ethanol. The pellet was dried and then resuspended in 30 μl of TE at pH 8 and analyzed in a fragment analyzer.

COc1cc([C@@H]2c3cc4c(cc3[C@@H](O[C@@H]3O[C@@H]5CO[C@@H](C)O[C@H]5[C@H](O)[C@H]3O)[C@H]3COC(=O)[C@H]23)OCO4)cc(OC)c1O [etoposide]
concentration from which the flow cytometry method (annexin V) reaches a detection plateau (MOLM14 cells): ≥ 2.5 µM

CN[C@@H]1C[C@H]2O[C@@](C)([C@@H]1OC)n1c3ccccc3c3c4c(c5c6ccccc6n2c5c31)C(=O)NC4 [staurosporine]
DNA fragments, a marker of cell death, in the cytoplasmic fraction (MDA-MB-231 cells): detected; also recorded: increase in the quantity of DNA fragments
